Results taken from ChEMBL document CHEMBL3259612, “Design, synthesis, docking and anti-inflammatory evaluation of novel series of benzofuran based prodrugs” (Bioorg Med Chem Lett, 2014).

Assays:
[1] = target: T1, Prostaglandin G/H synthase 1 (Rattus norvegicus, UniProt Q63921); test: Inhibition of rat seminal vesicle COX-1 using arachidonic acid as substrate assessed as reduction of PGG2 to PGH2 incubated for 1 min prior to substrate addition measured after 25 secs by chromogenic assay
T1 sequence (Q63921 whole entry): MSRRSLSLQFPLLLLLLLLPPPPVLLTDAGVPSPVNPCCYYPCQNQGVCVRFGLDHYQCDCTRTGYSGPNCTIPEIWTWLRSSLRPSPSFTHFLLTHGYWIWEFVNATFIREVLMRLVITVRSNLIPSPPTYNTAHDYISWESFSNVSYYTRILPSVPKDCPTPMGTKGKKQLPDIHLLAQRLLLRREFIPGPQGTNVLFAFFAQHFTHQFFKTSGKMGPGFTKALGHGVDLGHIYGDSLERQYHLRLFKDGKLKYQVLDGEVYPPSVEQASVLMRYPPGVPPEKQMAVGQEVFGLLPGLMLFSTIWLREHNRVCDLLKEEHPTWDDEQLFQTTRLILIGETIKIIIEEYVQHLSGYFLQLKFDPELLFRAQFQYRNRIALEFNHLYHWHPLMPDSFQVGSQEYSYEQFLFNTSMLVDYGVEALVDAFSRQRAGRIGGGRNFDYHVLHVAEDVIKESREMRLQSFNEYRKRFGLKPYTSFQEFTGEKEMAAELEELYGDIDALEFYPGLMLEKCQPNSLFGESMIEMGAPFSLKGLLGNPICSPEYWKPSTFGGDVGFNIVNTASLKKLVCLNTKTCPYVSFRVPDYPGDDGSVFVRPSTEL

Rattus norvegicus [2] = test: Antiinflammatory activity in Wistar albino rat assessed as inhibition of carrageenan-induced increase in paw edema at 10 mg/kg, po after 90 mins (reference value: 38.7 %); type: functional; parameters: scale not given: the % may be the effect or the level left
[3] = Selectivity index, ratio of IC50 for human recombinant COX-2 to IC50 for rat seminal vesicle COX-1; type: tissue-based
Rattus norvegicus [4] = test: Antiinflammatory activity in Wistar albino rat assessed as inhibition of carrageenan-induced increase in paw edema at 10 mg/kg, po after 30 mins (reference value: 30.1 %); type: functional; parameters: scale not given: the % may be the effect or the level left
[5] = target: T2, Prostaglandin G/H synthase 2 (Homo sapiens, UniProt P35354); test: Inhibition of human recombinant COX-2 expressed in insect cell system using arachidonic acid as substrate assessed as reduction of PGG2 to PGH2 incubated for 1 min prior to substrate addition measured after 25 secs by chromogenic assay
T2 sequence (P35354 whole entry): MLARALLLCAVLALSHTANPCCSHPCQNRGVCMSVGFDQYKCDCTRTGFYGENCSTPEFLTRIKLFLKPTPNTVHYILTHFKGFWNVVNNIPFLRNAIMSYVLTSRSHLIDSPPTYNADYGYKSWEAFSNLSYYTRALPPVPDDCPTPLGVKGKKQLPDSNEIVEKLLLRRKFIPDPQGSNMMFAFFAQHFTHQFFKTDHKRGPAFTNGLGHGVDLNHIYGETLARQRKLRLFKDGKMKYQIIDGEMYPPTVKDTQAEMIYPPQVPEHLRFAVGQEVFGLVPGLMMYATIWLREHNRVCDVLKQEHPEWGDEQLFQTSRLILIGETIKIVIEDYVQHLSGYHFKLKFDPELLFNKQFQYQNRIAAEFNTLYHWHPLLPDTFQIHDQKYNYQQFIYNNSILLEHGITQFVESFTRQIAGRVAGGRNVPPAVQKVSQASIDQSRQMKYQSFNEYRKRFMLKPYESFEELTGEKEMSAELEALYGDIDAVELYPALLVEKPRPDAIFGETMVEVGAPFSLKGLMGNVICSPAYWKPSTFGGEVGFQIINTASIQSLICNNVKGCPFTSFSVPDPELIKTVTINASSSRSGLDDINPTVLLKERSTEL

Compound	IC50 [1] [µM]	IC50 [5] [µM]	Activity (Rattus norvegicus [2]) [%]	Ratio IC50 [3]	Activity (Rattus norvegicus [4]) [%]
CCOC(=O)c1c(-c2ccccc2)oc2ccc(Oc3ccc4ccccc4c3)cc12	–	–	32.6	–	20.1
CCOC(=O)c1c(C)oc2ccc(Oc3ccc(OC)cc3)cc12	38.1	8.6	12.3	0.23	9.5
CS(=O)(=O)Nc1ccc([N+](=O)[O-])cc1Oc1ccccc1 [NIMESULIDE]	–	–	23.4	–	14.1
CCOC(=O)c1c(C)oc2ccc(Oc3ccccn3)cc12	27.9	8.1	18.9	0.29	–
CCOC(=O)c1c(-c2ccccc2)oc2ccc(Oc3ccccn3)cc12	–	–	32.6	–	25.1
CCOC(=O)c1c(C)oc2ccc(Oc3ccccc3C)cc12	35.8	6.1	20.4	0.17	10.1
CCOC(=O)c1c(C)oc2ccc(Oc3ccc(C)cc3)cc12	49.7	4.2	25.8	0.08	14.1

Now from value to compound, other results behind:

IC50 [1] [µM]	IC50 [5] [µM]	Compound	Activity (Rattus norvegicus [2]) [%]	Ratio IC50 [3]	Activity (Rattus norvegicus [4]) [%]
42.5	18.2	CCOC(=O)c1c(-c2ccccc2)oc2ccc(Oc3ccccc3)cc12	28.4	0.43	15.8
47.5	15.8	CCOC(=O)c1c(C)oc2ccc(Oc3ccc4ccccc4c3)cc12	–	0.35	–
29.8	20.1	CCOC(=O)c1c(-c2ccccc2)oc2ccc(Oc3ccccc3C)cc12	24.4	0.67	14.8
30.8	18.5	CCOC(=O)c1c(C)oc2ccc(Oc3ccccc3)cc12	23.8	0.59	15.7
26.2	19.2	CCOC(=O)c1c(-c2ccccc2)oc2ccc(Oc3ccc(C)cc3)cc12	32.6	0.74	22.1
